Where a name gives a salt, the structure may show the parent alone.
What was measured:
Conditions in all cases: stereoisomer not certain
[1] = RP, Merck Supelco Ascentis Express C18, 100 × 2.1 mm, 2 µm, 40 °C, 0.2 mL/min, estimated dead time 1.1 min; A: water + 0.1% formic acid, pH 3; B: acetonitrile + 0.1% formic acid, pH 3; gradient (min/%B) 0/5 2/5 17/99.9 20/99.9
[2] = as above; remark: listed apart in the source
[3] = RP, Merck Supelco Ascentis Express C18, 100 × 2.1 mm, 2 µm, 40 °C, 0.4 mL/min, estimated dead time 0.55 min; A: water + 0.1% formic acid, pH 3; B: acetonitrile + 0.1% formic acid, pH 3; gradient (min/%B) 0/5 2/5 17/99.9 20/99.9
[4] = as above; remark: listed apart in the source
[5] = RP, Merck Supelco Ascentis Express C18, 100 × 2.1 mm, 2 µm, 39 °C, 0.3 mL/min, estimated dead time 0.73 min; A: water + 0.1% formic acid, pH 3; B: acetonitrile + 0.1% formic acid, pH 3; gradient (min/%B) 0/5 2/5 17/99.9 20/99.9
[6] = RP, Merck Supelco Ascentis Express C18, 100 × 2.1 mm, 2 µm, 40 °C, 0.25 mL/min, estimated dead time 0.88 min; A: water + 0.1% formic acid, pH 3; B: acetonitrile + 0.1% formic acid, pH 3; gradient (min/%B) 0/5 2/5 17/99.9 20/99.9
[7] = RP, Merck Supelco Ascentis Express C18, 100 × 2.1 mm, 2 µm, 40 °C, 0.35 mL/min, estimated dead time 0.63 min; A: water + 0.1% formic acid, pH 3; B: acetonitrile + 0.1% formic acid, pH 3; gradient (min/%B) 0/5 2/5 17/99.9 20/99.9

SMILES	LC retention time [1] [min]	LC retention time [2] [min]	LC retention time [3] [min]	LC retention time [4] [min]	LC retention time [5] [min]	LC retention time [6] [min]	LC retention time [7] [min]
CSCC1OC(n2cnc3c(N)ncnc32)C(O)C1O (configuration not stated) [METHYLTHIOADENOSINE]	4.07	4.08	2.3	2.27	2.98	3.51	2.58
CC(C)=CCNc1ncnc2nc[nH]c12 [N6-(DELTA2-ISOPENTENYL)-ADENINE]	5.58	5.58	4.24	4.21	4.71	5.08	4.44
CC(=O)NC(C)C(=O)O (configuration not stated) [N-ACETYLALANINE]	1.51	1.52	0.737	0.74	1.01	1.19	0.853
CC(=O)NC(Cc1ccccc1)C(=O)O (configuration not stated) [N-ACETYLPHENYLALANINE]	6.32	6.31	4.82	4.78	5.37	5.77	5.04
CC(=O)N1CCCC1C(=O)O (configuration not stated) [N-ACETYLPROLINE]	2.76	2.77	1.46	1.39	1.89	2.22	1.58
CC(=O)NCCc1c[nH]c2ccc(O)cc12 [N-ACETYLSEROTONIN]	4.96	4.97	3.52	3.5	4.07	4.45	3.77
CC(=O)NC(Cc1c[nH]c2ccccc12)C(=O)O (configuration not stated) [N-ACETYLTRYPTOPHAN]	6.55	6.55	5.1	5.08	5.64	6.02	5.32
O=C(O)CCCCCCCCCCCO [OMEGA-HYDROXYDODECANOATE]	9.68	9.68	8.17	8.13	8.71	9.11	8.4
Cn1c(=O)[nH]c2ncn(C)c2c1=O [PARAXANTHINE]	3.98	3.96	2.16	2.15	2.81	3.33	2.47
CC(=O)Oc1ccccc1 [PHENYL ACETATE]	5.43	5.44	3.95	3.93	4.5	4.9	4.18
NC(Cc1ccccc1)C(=O)O (configuration not stated) [PHENYLALANINE]	2.23	2.26	1.11	1.1	1.46	1.77	1.26
CC(=O)C1CCC2C3CC=C4CC(OS(=O)(=O)O)CCC4(C)C3CCC12C (configuration not stated) [PREGNENOLONE SULFATE]	10.1	9.94	8.55	8.55	9.19	9.46	8.79
CC(=O)Oc1cccc(O)c1 [RESORCINOL MONOACETATE]	7.01	7	5.17	5.14	5.94	6.34	5.5
Cc1cc2nc3c(=O)[nH]c(=O)nc-3n(CC(O)C(O)C(O)CO)c2cc1C (configuration not stated) [RIBOFLAVIN]	5.39	5.38	4.24	4.23	4.65	4.94	4.41
O=C(C=Cc1ccc(O)c(O)c1)OC(Cc1ccc(O)c(O)c1)C(=O)O (configuration not stated) [ROSMARINATE]	6.9	6.88	5.62	5.6	6.1	6.41	5.82
NC(=O)c1ccccc1O [SALICYLAMIDE]	5.82	5.82	4.05	4.02	4.72	5.19	4.34
O=C(O)c1ccccc1[O-] [SALICYLATE]	5.3	5.31	3.62	3.59	4.28	4.72	3.9
Cn1c(=O)c2[nH]cnc2n(C)c1=O [THEOPHYLLINE]	3.98	3.96	2.16	2.15	2.81	3.32	2.47

Other lines, results leading:

LC retention time [1] [min]	LC retention time [2] [min]	LC retention time [3] [min]	LC retention time [4] [min]	LC retention time [5] [min]	LC retention time [6] [min]	LC retention time [7] [min]	SMILES
16.4	16.4	14.3	14.2	15	15.6	14.6	CCCCCCCCCCCCCC(=O)O [MYRISTATE]
1.91	1.92	0.95	0.937	1.26	1.52	1.09	CC(=O)NC(CS)C(=O)O (configuration not stated) [N-ACETYLCYSTEINE]
5.89	5.9	4.39	4.36	4.93	5.35	4.63	CC(=O)NC(CC(C)C)C(=O)O (configuration not stated) [N-ACETYLLEUCINE]
3.77	3.77	1.91	1.87	2.52	3.02	2.16	CSCC[C@H](NC=O)C(=O)O [N-FORMYL-L-METHIONINE]
1.62	1.63	0.8	0.79	1.05	1.3	0.91	CCCCC(N)C(=O)O (configuration not stated) [NORLEUCINE]
17.3	17.3	15.1	15.1	15.9	16.5	15.5	CCCCCCCCC=CCCCCCCCC(=O)OCC(O)CO (configuration not stated) [OLEOYL-GLYCEROL]
5	4.99	3.36	3.34	4.02	4.43	3.64	O=C(O)Cc1ccc(O)cc1 [P-HYDROXYPHENYLACETATE]
17.9	17.9	15.7	15.7	16.5	17.1	16.1	CCCCCCCCCCCCCCCC(=O)O [PALMITATE]
2.7	2.71	1.38	1.36	1.79	2.15	1.56	CC(C)(CO)C(O)C(=O)NCCC(=O)O (configuration not stated) [PANTOTHENATE]
18.2	18.1	16.1	16	16.8	17.4	16.4	CCCCCCCCCCCC=CCCCCC(=O)[O-] [PETROSELINATE]
7.13	7.14	5.87	5.85	6.32	6.66	6.06	CCCCCCSCC(NC(=O)CCC(N)C(=O)O)C(=O)NCC(=O)O (configuration not stated) [S-HEXYL-GLUTATHIONE]
7.81	7.79	6.39	6.34	6.92	7.27	6.59	O=C(O)CCCCCCCCC(=O)O [SEBACATE]
6.08	6.08	4.62	4.59	5.22	5.55	4.87	O=C([O-])CCCCCCC(=O)[O-] [SUBERATE]

From the RepoRT retention time repository (doi:10.1007/s00216-021-03828-0)
